Laboratory results taken from publication PMC12814364 (Journal of the American Chemical Society, 2025).
Entries after “also recorded” stand apart in the source; their conditions may differ. Like-named read-outs stand apart in the source and are kept apart here.

Key:
HBHA110–199 [1] = biological target: T1, HBHA110–199 (Mycobacterium tuberculosis, UniProt P9WIP9); test: ITC binding of HS hexadecasaccharides with HBHA110–199
HBHA110–199 [2] = biological target: T1, HBHA110–199; settings: cited from earlier work
full-length HBHA = biological target: T2, full-length HBHA (Mycobacterium tuberculosis, UniProt P9WIP9); test: Far-UV circular dichroism of full-length HBHA with added sugar; settings: varying equivalents added; negative control
T2 sequence (P9WIP9 1-199): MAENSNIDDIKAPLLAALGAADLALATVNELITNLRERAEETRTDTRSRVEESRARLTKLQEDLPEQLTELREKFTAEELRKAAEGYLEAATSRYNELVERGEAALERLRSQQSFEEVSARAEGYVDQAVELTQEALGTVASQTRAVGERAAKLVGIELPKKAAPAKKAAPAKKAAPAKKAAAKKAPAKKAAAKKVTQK

## O=C(O)[C@@H]1O[C@@H](O[C@H]2[C@H](O)[C@@H](NS(=O)(=O)O)[C@@H](O[C@H]3[C@H](O)[C@@H](OS(=O)(=O)O)[C@H]4OC[C@@H]3O4)O[C@@H]2COS(=O)(=O)O)[C@H](OS(=O)(=O)O)[C@@H](O)[C@@H]1O[C@H]1O[C@H](COS(=O)(=O)O)[C@@H](O[C@@H]2O[C@@H](C(=O)O)[C@@H](O[C@H]3O[C@H](COS(=O)(=O)O)[C@@H](O[C@@H]4O[C@@H](C(=O)O)[C@@H](O[C@H]5O[C@H](COS(=O)(=O)O)[C@@H](O)[C@H](O)[C@H]5NS(=O)(=O)O)[C@H](O)[C@H]4OS(=O)(=O)O)[C@H](O)[C@H]3NS(=O)(=O)O)[C@H](O)[C@H]2OS(=O)(=O)O)[C@H](O)[C@H]1NS(=O)(=O)O [HS8]
HBHA110–199 [1]; 25 °C, Tris buffer pH 7.6
  n (sugar-to-protein binding ratio): 0.56 ± 0.01
  ΔG: –7.68 ± 0.08 kcal/mol
  ΔH: 5.38 ± 0.05 kcal/mol
  –TΔS: –13.05 ± 0.07 kcal/mol
HBHA110–199 [1]; Tris buffer pH 7.6, 25 °C, two trials, average ± standard deviation, read-out: dissociation constant, KD
  Kd: 2.4 ± 0.3 µM
HBHA110–199 [2]; Average of Repeat I P(KKAA), residue 160-164, read-out: Dissociation constant from NMR cross-peak movement, average
  Kd: 24.5 µM
HBHA110–199 [2]; Average of Repeat II P(AKKAA), residue 165-170, read-out: Dissociation constant from NMR cross-peak movement, average
  Kd: 11.8 µM
HBHA110–199 [2]; Average of Repeat III P(AKKAA), residue 171-176, read-out: Dissociation constant from NMR cross-peak movement, average
  Kd: 6.9 µM
HBHA110–199 [2]; Average of Repeat IV P(AKKAAAKKA), residue 177-186, read-out: Dissociation constant from NMR cross-peak movement, average
  Kd: 6.2 µM
HBHA110–199 [2]; Average of Repeat V P(AKKAAAKKV), residue 187-196, read-out: Dissociation constant from NMR cross-peak movement, average
  Kd: 4.6 µM
HBHA110–199 [2]; protein-to-sugar molar ratio 1:2, all residues, reported previously, ref Huang et al., 2017
  average Δδresidue (weighted chemical shift deviation) of HBHA110–199: 0.019 ppm
HBHA110–199 [2]; residue A163, Repeat I, read-out: Dissociation constant from NMR cross-peak movement
  Kd: 20.7 µM
HBHA110–199 [2]; residue A164, Repeat I, read-out: Dissociation constant from NMR cross-peak movement
  Kd: 22.2 µM
HBHA110–199 [2]; residue A166, Repeat II, read-out: Dissociation constant from NMR cross-peak movement
  Kd: 14.4 µM
HBHA110–199 [2]; residue A169, Repeat II, read-out: Dissociation constant from NMR cross-peak movement
  Kd: 14.6 µM
HBHA110–199 [2]; residue A170, Repeat II, read-out: Dissociation constant from NMR cross-peak movement
  Kd: 8.3 µM
HBHA110–199 [2]; residue A172, Repeat III, read-out: Dissociation constant from NMR cross-peak movement
  Kd: 10.3 µM
HBHA110–199 [2]; residue A175, Repeat III, read-out: Dissociation constant from NMR cross-peak movement
  Kd: 8.5 µM
HBHA110–199 [2]; residue A176, Repeat III, read-out: Dissociation constant from NMR cross-peak movement
  Kd: 5 µM
HBHA110–199 [2]; residue A178, Repeat IV, read-out: Dissociation constant from NMR cross-peak movement
  Kd: 4.8 µM
HBHA110–199 [2]; residue A181, Repeat IV, read-out: Dissociation constant from NMR cross-peak movement
  Kd: 4.8 µM
HBHA110–199 [2]; residue A182, Repeat IV, read-out: Dissociation constant from NMR cross-peak movement
  Kd: 4.6 µM
HBHA110–199 [2]; residue A183, Repeat IV, read-out: Dissociation constant from NMR cross-peak movement
  Kd: 4.6 µM
HBHA110–199 [2]; residue A186, Repeat IV, read-out: Dissociation constant from NMR cross-peak movement
  Kd: 3.1 µM
HBHA110–199 [2]; residue A188, Repeat V, read-out: Dissociation constant from NMR cross-peak movement
  Kd: 4.8 µM
HBHA110–199 [2]; residue A191, Repeat V, read-out: Dissociation constant from NMR cross-peak movement
  Kd: 5.3 µM
HBHA110–199 [2]; residue A192, Repeat V, read-out: Dissociation constant from NMR cross-peak movement
  Kd: 4.6 µM
HBHA110–199 [2]; residue A193, Repeat V, read-out: Dissociation constant from NMR cross-peak movement
  Kd: 4.8 µM
HBHA110–199 [2]; residue K161, Repeat I, read-out: Dissociation constant from NMR cross-peak movement
  Kd: 9.8 µM
HBHA110–199 [2]; residue K162, Repeat I, read-out: Dissociation constant from NMR cross-peak movement
  Kd: 45.3 µM
HBHA110–199 [2]; residue K167, Repeat II, read-out: Dissociation constant from NMR cross-peak movement
  Kd: 4.2 µM
HBHA110–199 [2]; residue K168, Repeat II, read-out: Dissociation constant from NMR cross-peak movement
  Kd: 17.2 µM
HBHA110–199 [2]; residue K173, Repeat III, read-out: Dissociation constant from NMR cross-peak movement
  Kd: 4.2 µM
HBHA110–199 [2]; residue K174, Repeat III, read-out: Dissociation constant from NMR cross-peak movement
  Kd: 6.6 µM
HBHA110–199 [2]; residue K179, Repeat IV, read-out: Dissociation constant from NMR cross-peak movement
  Kd: 6.6 µM
HBHA110–199 [2]; residue K180, Repeat IV, read-out: Dissociation constant from NMR cross-peak movement
  Kd: 4.1 µM
HBHA110–199 [2]; residue K184, Repeat IV, read-out: Dissociation constant from NMR cross-peak movement
  Kd: 18.3 µM
HBHA110–199 [2]; residue K185, Repeat IV, read-out: Dissociation constant from NMR cross-peak movement
  Kd: 4.5 µM
HBHA110–199 [2]; residue K189, Repeat V, read-out: Dissociation constant from NMR cross-peak movement
  Kd: 5.9 µM
HBHA110–199 [2]; residue K190, Repeat V, read-out: Dissociation constant from NMR cross-peak movement
  Kd: 4.1 µM
HBHA110–199 [2]; residue K194, Repeat V, read-out: Dissociation constant from NMR cross-peak movement
  Kd: 4.9 µM
HBHA110–199 [2]; residue K195, Repeat V, read-out: Dissociation constant from NMR cross-peak movement
  Kd: 4.6 µM
HBHA110–199 [2]; residue V196, Repeat V, read-out: Dissociation constant from NMR cross-peak movement
  Kd: 2.7 µM

## CC(=O)N[C@H]1[C@@H](O[C@H]2[C@H](O)[C@@H](O)[C@H]3OC[C@@H]2O3)O[C@H](CO)[C@@H](O[C@@H]2O[C@@H](C(=O)O)[C@@H](O[C@H]3O[C@H](CO)[C@@H](O[C@@H]4O[C@@H](C(=O)O)[C@@H](O[C@H]5O[C@H](CO)[C@@H](O[C@@H]6O[C@@H](C(=O)O)[C@@H](O[C@H]7O[C@H](CO)[C@@H](O[C@@H]8O[C@@H](C(=O)O)[C@@H](O[C@H]9O[C@H](CO)[C@@H](O[C@@H]%10O[C@@H](C(=O)O)[C@@H](O[C@H]%11O[C@H](CO)[C@@H](O[C@@H]%12O[C@@H](C(=O)O)[C@@H](O[C@H]%13O[C@H](CO)[C@@H](O[C@@H]%14O[C@@H](C(=O)O)[C@@H](O[C@H]%15O[C@H](CO)[C@@H](O)[C@H](O)[C@H]%15NC(C)=O)[C@H](O)[C@H]%14O)[C@H](O)[C@H]%13NC(C)=O)[C@H](O)[C@H]%12O)[C@H](O)[C@H]%11NC(C)=O)[C@H](O)[C@H]%10O)[C@H](O)[C@H]9NC(C)=O)[C@H](O)[C@H]8O)[C@H](O)[C@H]7NC(C)=O)[C@H](O)[C@H]6O)[C@H](O)[C@H]5NC(C)=O)[C@H](O)[C@H]4O)[C@H](O)[C@H]3NC(C)=O)[C@H](O)[C@H]2O)[C@@H]1O [compound 20]
HBHA110–199 [1]; Tris buffer pH 7.6, 25 °C, two trials, average ± standard deviation
  dissociation constant, KD: no detectable binding; also recorded: no binding detected
full-length HBHA
  conformational change of full-length HBHA (CD): did not induce any significant conformational change
